Like-named read-outs stand apart in the source and are kept apart here.
How the values were obtained:
[1] = system: rat jejunum; design: method as in 2 sources, ref 33 = [33]; PMID 21501675; doi:10.1016/j.ijpharm.2011.04.003; 33 Woitiski CB , Sarmento B , Carvalho RA , Neufeld RJ , Veiga F ( 2011 ) Facilitated nanoscale delivery of insulin across intestinal membrane models . Int J Pharm 412 : 123 – 131 . 21501675 10.1016/j ||| ref 36 = [36]; PMID 10227707; doi:10.1023/a:1018819012405; 36 Sinko PJ , Lee YH , Makhey V , Leesman GD , Sutyak JP , et al ( 1999 ) Biopharmaceutical approaches for developing and assessing oral peptide delivery strategies and systems: in vitro permeability; settings: cited from earlier work
[2] = Polypeptide transport across 3-day Caco-2 monolayers (ELISA); type: in vitro ADME, Human; settings: human, 3-day Caco-2, apical-to-basolateral, room temperature, gentle shaking, mean±SD n = 3, read-out: Apparent Permeability (Papp)
Method: (§1) Transport of three different macromolecular pharmaceutical peptides was studied across the Caco-2 monolayers at different loading concentrations. […] Different doses were selected for different polypeptides based upon the values reported in literature to not only approach therapeutic efficacy but also to provide a valid comparison with the results obtained in 21-day monolayer system. Polypeptides were incubated with Caco-2 monolayers for 5 hrs at room temperature with gentle shaking. TEER measurements were performed and samples were collected from basolateral chambers of the Caco-2 plates to determine total drug transport and apparent permeability at different concentrations.

[3] = system: Caco-2 monolayers; assay: as above; type: in vitro ADME, Human; settings: 3-day Caco-2, apical-to-basolateral, room temperature, mean±SD n = 3; for Total amount transported to the basolateral side: 5 h
Method: as §1

[4] = system: Caco-2 monolayers; assay: Validation of 3-day Caco-2 transwell system: FITC-insulin and sulforhodamine-B transport (fluorescence); settings: for Apparent Permeability (Papp) / % Transport in 5 hours / Cumulative amount transported to basolateral chamber: room temperature, fluorescence, mean±SD n = 3; for Apparent Permeability (Papp): gentle shaking; for Cumulative amount transported to basolateral chamber: after 5 h
Method: (§2) Human colorectal adenocarcinoma Caco-2 cell line (HTB-37) obtained from American Type culture Collection (ATCC) (Manassas, VA, USA) was used for all experiments. Cell lines were maintained as per the provider's protocol. Cell culture was performed in Hyclone® DMEM high glucose medium (Thermo Fisher Scientific, Pittsburgh, PA, USA) supplemented with 50 IU/ml of penicillin, 50 mg/L of streptomycin, and 100 ml/L of fetal bovine serum at 37°C in a humidity-controlled 5% CO2 cell culture incubator. Cells were split at a ratio of 1∶3 after reaching 90% confluence. All transwell experiments were performed with cells between 5th–14th passages due to possible phenotypic differences between cells from high and low passage intervals. Cells were cultivated for at least 2 passages before seeding onto transwell filter supports to stabilize the cell phenotype 12].
(§3) Transwell experiments were performed with slight modifications to the protocols provided by the manufacturer (BD Biosciences, Bedford, MA, USA). For the development of the transwell assay system for permeability experiments, Caco-2 cells were seeded onto fibrillar collagen coated polyethylene terephthalate (PET) filter supports (1 µm pore size) of BD Biocoat™ HTS Caco-2 assay system (BD Biosciences, Bedford, MA, USA) according to manufacturer's protocol with slight modifications. Briefly, Caco-2 cells were seeded onto the filter supports at a concentration of 200,000 cells/insert (6.6×10^5 cells/cm^2) using basal seeding medium (with MITO+ serum extender) provided in the HTS system, and were incubated in cell culture incubator (37°C, 5% CO2). Cells were fed from both sides using the Multiwell feeder tray. After 24 hrs, the feeding medium was replaced with MITO+ serum extender supplemented Entero-STIM medium, and growing monolayers were incubated as described earlier. Upon incubation for 48–72 hrs, Caco-2 cells developed a tight junction monolayer, integrity of which was determined by TEER measurements.
(§4) The integrity of Caco-2 monolayer was determined by measuring the transepithelial electrical resistance (TEER) of the cell monolayer grown on filter supports using Millicell-ERS electrical resistance measuring system (Millipore, Bedford, MA) using chopstick electrodes. Briefly, the Caco-2 inserts were transferred to a 24-well culture plate with 1400 µl medium in the feeding well, and 500 µl in culture inserts. The electrodes were immersed in a way that shorter electrode was in the insert and longer electrode in the outer well. […] Based on the literature, a resistance reading of 150–200 Ω.cm^2 was considered as indicative of a confluent Caco-2 monolayer with tight junctions.
(§5) Briefly, cells were pre-conditioned with basal seeding medium for 30 minutes before starting the experiment at 37°C. […] The basolateral chamber consisted 1400 µl of the same growth medium as per manufacturer's protocol. The plates were incubated for 5 hrs at room temperature with gentle shaking (5 rocks/minute on a rocker, so as to mimic intestinal peristaltic movement). TEER measurements were performed at predetermined time intervals (0. 0.25, 0.5, 1, 2, 3, and 5 hrs). At the same time-points, 100 µl samples were withdrawn from the basolateral chamber to quantify the total amount of FITC-ins/sulforhodamine-B transported across the monolayer. The withdrawn sample was immediately replaced with equivalent amount of the experimental medium.
(§6) The apparent permeability coefficients (Papp) of all polypeptides were calculated using the following equation 19]: [drawing 1]
(§7) Where dQ/dt is the amount of solutes transported across the Caco-2 barrier in time dt, C0 is the solute concentration in apical compartment at time zero, and A is the cross-sectional area of the epithelium in contact with apical solution. Total percent drug transport was calculated by dividing the cumulative amount of molecules transported with the original loading concentrations.

[5] = system: Caco-2 monolayers
Method: as §2, §3, §4, §5, §6, §7

[6] = apical loading 0.005 mg (5 µg/well)
[7] = apical loading 0.024 mg (24 µg/well)

CC(C)C[C@H](NC(=O)[C@H](CCCCN)NC(=O)CNC(=O)[C@H](CC(C)C)NC(=O)[C@@H](NC(=O)[C@@H]1CSSC[C@H](N)C(=O)N[C@@H](CO)C(=O)N[C@@H](CC(N)=O)C(=O)N[C@@H](CC(C)C)C(=O)N[C@@H](CO)C(=O)N[C@@H]([C@@H](C)O)C(=O)N1)C(C)C)C(=O)N[C@@H](CO)C(=O)N[C@@H](CCC(N)=O)C(=O)N[C@@H](CCC(=O)O)C(=O)N[C@@H](CC(C)C)C(=O)N[C@@H](Cc1c[nH]cn1)C(=O)N[C@@H](CCCCN)C(=O)N[C@@H](CC(C)C)C(=O)N[C@@H](CCC(N)=O)C(=O)N[C@H](C(=O)N[C@@H](Cc1ccc(O)cc1)C(=O)N1CCC[C@H]1C(=O)N[C@@H](CCCNC(=N)N)C(=O)N[C@H](C(=O)N[C@@H](CC(N)=O)C(=O)N[C@H](C(=O)NCC(=O)N[C@@H](CO)C(=O)NCC(=O)N[C@H](C(=O)N1CCC[C@H]1C(N)=O)[C@@H](C)O)[C@@H](C)O)[C@@H](C)O)[C@@H](C)O [Salmon Calcitonin]
Permeability through rat jejunum [1]: 1.9±0.5 ×10^−6 cm/sec
Papp A→B at 5 h, 5 µg/well [2, 6]: 2 ± 0.07 ×10⁻⁶ cm/s
Papp A→B at 5 h, 24 µg/well [2, 7]: 1.5 ± 0.7 ×10⁻⁶ cm/s
Total amount transported to the basolateral side ([3]; apical loading 5 µg/well): 55 ± 2 ng
% Transport in 5 hours [3, 6]: 1.1±0.04%
% Transport in 5 hours [3, 7]: 0.8±0.4%
Total amount transported to the basolateral side ([3]; apical loading 24 µg/well): 192 ± 95 ng

CCN(CC)c1ccc2c(-c3ccc(S(=O)(=O)O)cc3S(=O)(=O)[O-])c3ccc(=[N+](CC)CC)cc-3oc2c1 [Sulforhodamine-B, sulforhodamine B]
Apparent Permeability (Papp) ([4]; 3-day Caco-2 (BD Biocoat HTS, serum-free), apical-to-basolateral, apical loading 0.05 mg/well in 500 µl basal seeding medium, 30 min pre-conditioning, 5 h): 5.0±2.9 10^−6 cm/s
% Transport in 5 hours ([4]; 3-day Caco-2, apical-to-basolateral, apical loading 0.05 mg/well, 5 h): 2.8±1.6%
Cumulative amount transported to basolateral chamber ([4]; 3-day Caco-2, apical-to-basolateral, apical loading 0.05 mg/well): 0.002 ± 0.0008 mg
Apparent Permeability (Papp) ([4]; 3-day Caco-2, apical-to-basolateral, apical loading 0.3 mg/well in 500 µl, 5 h): 5.3±0.8 10^−6 cm/s
% Transport in 5 hours ([4]; 3-day Caco-2, apical-to-basolateral, apical loading 0.3 mg/well, 5 h): 2.9±0.4%
Cumulative amount transported to basolateral chamber ([4]; 3-day Caco-2, apical-to-basolateral, apical loading 0.3 mg/well): 0.009 ± 0.001 mg
Apparent Permeability (Papp) ([4]; 3-day Caco-2, apical-to-basolateral, apical loading 0.6 mg/well in 500 µl, 5 h): 4.0±0.6 10^−6 cm/s
% Transport in 5 hours ([4]; 3-day Caco-2, apical-to-basolateral, apical loading 0.6 mg/well, 5 h): 2.3±0.4%
Cumulative amount transported to basolateral chamber ([4]; 3-day Caco-2, apical-to-basolateral, apical loading 0.6 mg/well): 0.01 ± 0.002 mg
Apparent Permeability (Papp) ([4]; 3-day Caco-2, apical-to-basolateral, apical loading […] in 500 µl, 5 h): 4.9±0.9 10^−6 cm/s
Effect on Caco-2 monolayer integrity during transport ([4]; 3-day Caco-2, different loading concentrations, 5 h, TEER): without damaging the monolayer

FITC-Insulin: fluorescein isothiocynate conjugated bovine insulin (Sigma Aldrich)
Apparent permeability coefficients (Papp), range over the loadings studied [5]: 8.2±1.8-10.5±1.8
Effect on Caco-2 monolayer integrity during transport [5]: without damaging the monolayer
